Measured values from patent publication US20230313199A1, “TARGET FOR MODULATING BODY MASS” (Massachusetts Institute of Technology, priority 2020, published 2023).

Assays:
[1] = test system: THP-1 cells; assay: Cellular energy charge (ATP/ADP ratio); format: cell-based, human; conditions: heme 1 hour, reduced to similar levels as in 7CKO cells
Procedure: Measurement of cellular energy charge (ATP/ADP ratio). ATP/ADP ratio was measured using ADP Assay Kit (Sigma Catalog No. MAK133-1KT) following manufacturer's protocol. For THP-1 cells, 24 hours before the experiment, cells were resuspended in fresh complete RPMI media. For heme treatment, 1 mL of treated cell suspension was incubated for 1 hour at 37° C. cell culture incubator, then centrifuged and resuspended in 1 mL of fresh warm complete RPMI media in order to wash off excess heme, which interferes with the assays. […] per well (approximately 10,000 cells total) was placed in a white 96-well plate, lysed with 90 μL of ATP Buffer, and incubated with gentle shaking at room temperature for 10 min. Relative ATP amount was directly measured using luminescence. Then, 5 μL of ADP Enzyme mix was added to each well and the plate was incubated with light shaking for 3 minutes. Relative amount of ADP+ATP was measured using luminescence. ADP amount was calculated by subtracting the ATP signal from ADP+ATP signal. To get ATP/ADP ratio, ATP signal was divided by the calculated ADP signal. For BMDMs, the assay was performed following the same protocol but using 20,000 cells per well.

[2] = test system: interactions between MFSD7C^ΔN and CYC1, NDUFA4, COX4i1, ATP5h and ATP5c1; assay: Co-IP of HA-tagged MFSD7C^ΔN with ETC components; format: cell-based, murine; conditions: heme treatment before lysis
Procedure: FIGS. 4A-4H show NTD of MFSD7C mediates heme effect on mitochondrial respiration. FIGS. 4A-4C show comparison of basal OCR (FIG. 4A), maximal OCR (FIG. 4B) and ECAR (FIG. 4C) of THP-1, 4B8, and 4B8^FL and 4B8^ΔN cells treated with vehicle or heme for 1 hour (n=18 separate experiments). […] Cells were incubated with FPT for 6 hrs, washed and reseeded in poly-lysine coated glass bottom dishes. After cells attached to the glass, medium containing 40 μM heme was added. Cells in the same field were imaged immediately and again 1 hour later. Relative FPT fluorescent intensities, normalized to THP-1, from three experiments are shown. (n=3 independent experiments). […] THP-1 cells were co-cultured with 4B8, 4B8^FL, or 4B8^ΔN in FPT solution for 6 hrs, washed and reseeded in poly-lysine coated glass bottom dishes. Cells were imaged by confocal laser-scanning microscopy. […] Representative images from three experiments are shown. Scale bar: 10 μm. […] THP-1, 4B8, 4B8^FL and 4B8^ΔN cells were treated with vehicle or heme for 1 hour and MMP was measured by using JC-10 Mitochondrial Membrane Potential Assay Kit followed by flow cytometry. […] Shown are representative Western blotting data (FIG. 4G) and quantification of band intensities from n=3 independent experiments (FIG. 4H). P-values were calculated using two-way ANOVA (*p<0.05, **p<0.01, ***p<0.005). […]

Structure (SMILES): C=CC1=C(C)c2cc3[n-]c(cc4[n-]c(cc5nc(cc1n2)C(C)=C5C=C)c(C)c4CCC(=O)O)c(CCC(=O)O)c3C.[Fe+2] [heme]
- ATP/ADP ratio [1]: reduced
- disruption of interactions between MFSD7C^ΔN and ETC components (co-IP) [2]: failed to disrupt
